Measurements taken from publication PMC5896380, “Selective imaging of cathepsin L in breast cancer by fluorescent activity-based probes” (Chemical Science, 2018).
Non-standard residues stand in square brackets, D forms with d. *: point of attachment. Phe(F5) = N[C@@H](Cc1c(F)c(F)c(F)c(F)c1F)C(=O)O; Phe(3,4-F2) = N[C@@H](Cc1ccc(F)c(F)c1)C(=O)O; Phe(4-F) = N[C@@H](Cc1ccc(F)cc1)C(=O)O; ACC = NC(=O)Cc1cc(=O)oc2cc(N*)ccc12; hArg = N=C(N)NCCCC[C@H](N)C(=O)O; Mob = COc1ccc(C*)cc1; OBn = c1ccc(CO*)cc1

How the values were obtained:
Type in all cases: biochemical
[1] = biological target: T1, cathepsin L (Homo sapiens, UniProt P07711); experiment: Kinetic parameters of ACC substrates with cathepsin L; details: Fig. 5B; pH 5.5, 37 °C; cathepsin L 0.1–0.5 nM; triplicate, SD below 15%
T1 construct: made in house
T1 sequence (P07711 114-333): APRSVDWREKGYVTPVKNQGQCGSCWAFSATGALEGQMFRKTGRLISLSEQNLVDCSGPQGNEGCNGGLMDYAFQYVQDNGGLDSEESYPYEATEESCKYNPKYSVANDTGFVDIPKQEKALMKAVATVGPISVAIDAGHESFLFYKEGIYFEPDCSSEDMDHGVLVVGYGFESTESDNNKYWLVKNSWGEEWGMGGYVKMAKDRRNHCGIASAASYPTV
Description: (§1) All kinetic experiments were performed using fMax (Molecular Devices) and CLARIOStar (BMG LABTECH) spectrofluorimeters operating in kinetic mode using 96-well plates. ACC-labeled substrates were screened using 355 nm and 460 nm wavelengths (excitation and emission, respectively). […] The buffer was prepared at room temperature and the enzyme kinetic studies were performed at 37 °C.
(§2) Classic substrate velocity plots were analyzed according to Michaelis–Menten kinetics and a detailed protocol for the determination of kinetic parameters for ACC-tagged substrates is found elsewhere.[56] […] Experiments were repeated at least three times and results are presented as an average. The SDs were below 15%.

[2] = biological target: T2, cathepsin V (Homo sapiens, UniProt O60911); experiment: Kinetic parameters of ACC substrates with cathepsin V; details: Fig. 5B; pH 5.5, 37 °C; cathepsin V 10–20 nM; triplicate, SD below 15%
T2 construct: made in house
T2 sequence (O60911 114-334): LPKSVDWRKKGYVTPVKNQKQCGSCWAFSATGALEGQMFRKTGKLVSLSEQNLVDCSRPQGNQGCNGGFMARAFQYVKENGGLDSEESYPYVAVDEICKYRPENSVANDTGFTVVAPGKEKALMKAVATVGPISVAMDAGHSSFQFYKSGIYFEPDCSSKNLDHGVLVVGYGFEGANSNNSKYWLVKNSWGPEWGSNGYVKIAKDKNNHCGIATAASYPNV
Description: as §1, §2

[3] = biological target: T3, cathepsin S (Homo sapiens, UniProt P25774); experiment: Kinetic parameters of ACC substrates with cathepsin S; details: Fig. 5B; pH 5.5, 37 °C; cathepsin S 5–20 nM; triplicate, SD below 15%
T3 construct: made in house
T3 sequence (P25774 115-331): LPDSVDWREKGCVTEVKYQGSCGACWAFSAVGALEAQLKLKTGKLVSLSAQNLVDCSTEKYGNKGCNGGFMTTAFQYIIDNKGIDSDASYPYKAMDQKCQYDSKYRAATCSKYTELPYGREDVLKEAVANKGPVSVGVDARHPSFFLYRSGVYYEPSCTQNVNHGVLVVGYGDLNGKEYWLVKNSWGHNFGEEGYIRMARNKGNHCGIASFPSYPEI
Description: as §1, §2

[4] = biological target: T4, cathepsin K (Homo sapiens, UniProt P43235); experiment: Kinetic parameters of ACC substrates with cathepsin K; details: Fig. 5B; pH 5.5, 37 °C; cathepsin K 5–20 nM; triplicate, SD below 15%
T4 construct: made in house
T4 sequence (P43235 115-329): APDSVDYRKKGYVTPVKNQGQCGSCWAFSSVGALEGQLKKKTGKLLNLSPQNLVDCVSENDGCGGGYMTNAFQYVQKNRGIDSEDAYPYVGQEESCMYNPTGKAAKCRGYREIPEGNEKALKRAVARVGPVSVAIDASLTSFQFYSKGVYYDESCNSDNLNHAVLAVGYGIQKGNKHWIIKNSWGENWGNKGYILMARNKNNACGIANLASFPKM
Description: as §1, §2

[5] = biological target: T5, cathepsin B (Homo sapiens, UniProt P07858); experiment: Kinetic parameters of ACC substrates with cathepsin B; details: Fig. 5B; pH 5.5, 37 °C; cathepsin B 4–15 nM; triplicate, SD below 15%
T5 construct: made in house
Description: as §1, §2

Ac-H[dQ][Phe(F5)]R-{ACC} (SMILES CC(=O)N[C@@H](Cc1c[nH]cn1)C(=O)N[C@H](CCC(N)=O)C(=O)N[C@@H](Cc1c(F)c(F)c(F)c(F)c1F)C(=O)N[C@@H](CCCNC(=N)N)C(=O)Nc1ccc2c(CC(N)=O)cc(=O)oc2c1)
kcat/KM Cath-L [1]: 336,900 M^-1s^-1
kcat/KM Cath-V [2]: 1,070 M^-1s^-1
kcat/KM Cath-S [3]: < 10 M⁻¹ s⁻¹
kcat/KM Cath-K [4]: < 10 M⁻¹ s⁻¹
kcat/KM Cath-B [5]: 130 M⁻¹ s⁻¹

Ac-H[dK][Phe(F5)]R-{ACC} (SMILES CC(=O)N[C@@H](Cc1c[nH]cn1)C(=O)N[C@H](CCCCN)C(=O)N[C@@H](Cc1c(F)c(F)c(F)c(F)c1F)C(=O)N[C@@H](CCCNC(=N)N)C(=O)Nc1ccc2c(CC(N)=O)cc(=O)oc2c1)
kcat/KM Cath-L [1]: 715,000 M^-1s^-1
kcat/KM Cath-V [2]: 1,010 M^-1s^-1
kcat/KM Cath-S [3]: < 10 M⁻¹ s⁻¹
kcat/KM Cath-K [4]: 29 M⁻¹ s⁻¹
kcat/KM Cath-B [5]: 175 M⁻¹ s⁻¹

Ac-His-DVal-Phe(F5)-Lys-ACC
kcat/KM Cath-L [1]: 231,000 M^-1s^-1
kcat/KM Cath-V [2]: < 10 M⁻¹ s⁻¹
kcat/KM Cath-S [3]: < 10 M⁻¹ s⁻¹
kcat/KM Cath-K [4]: < 10 M⁻¹ s⁻¹
kcat/KM Cath-B [5]: < 10 M⁻¹ s⁻¹

Ac-H[dV][Phe(F5)]C(Mob)-{ACC} (SMILES COc1ccc(CSC[C@H](NC(=O)[C@H](Cc2c(F)c(F)c(F)c(F)c2F)NC(=O)[C@H](NC(=O)[C@H](Cc2c[nH]cn2)NC(C)=O)C(C)C)C(=O)Nc2ccc3c(CC(N)=O)cc(=O)oc3c2)cc1)
kcat/KM Cath-L [1]: 2,135,000 M^-1s^-1
kcat/KM Cath-V [2]: 2,070 M^-1s^-1
kcat/KM Cath-S [3]: < 10 M⁻¹ s⁻¹
kcat/KM Cath-K [4]: < 10 M⁻¹ s⁻¹
kcat/KM Cath-B [5]: 3,800 M^-1s^-1

Ac-H[dV][Phe(F5)][hArg]-{ACC} (SMILES CC(=O)N[C@@H](Cc1c[nH]cn1)C(=O)N[C@@H](C(=O)N[C@@H](Cc1c(F)c(F)c(F)c(F)c1F)C(=O)N[C@@H](CCCCNC(=N)N)C(=O)Nc1ccc2c(CC(N)=O)cc(=O)oc2c1)C(C)C)
kcat/KM Cath-L [1]: 317,900 M^-1s^-1
kcat/KM Cath-V [2]: 175 M⁻¹ s⁻¹
kcat/KM Cath-S [3]: < 10 M⁻¹ s⁻¹
kcat/KM Cath-K [4]: < 10 M⁻¹ s⁻¹
kcat/KM Cath-B [5]: 187 M⁻¹ s⁻¹

Ac-H[dV][Phe(4-F)]R-{ACC} (SMILES CC(=O)N[C@@H](Cc1c[nH]cn1)C(=O)N[C@@H](C(=O)N[C@@H](Cc1ccc(F)cc1)C(=O)N[C@@H](CCCNC(=N)N)C(=O)Nc1ccc2c(CC(N)=O)cc(=O)oc2c1)C(C)C)
kcat/KM Cath-L [1]: 6,991,000 M^-1s^-1
kcat/KM Cath-V [2]: 14,550 M^-1s^-1
kcat/KM Cath-S [3]: 1,800 M^-1s^-1
kcat/KM Cath-K [4]: 2,580 M^-1s^-1
kcat/KM Cath-B [5]: 3,100 M^-1s^-1

Ac-H[dV][Phe(3,4-F2)]R-{ACC} (SMILES CC(=O)N[C@@H](Cc1c[nH]cn1)C(=O)N[C@@H](C(=O)N[C@@H](Cc1ccc(F)c(F)c1)C(=O)N[C@@H](CCCNC(=N)N)C(=O)Nc1ccc2c(CC(N)=O)cc(=O)oc2c1)C(C)C)
kcat/KM Cath-L [1]: 6,031,000 M^-1s^-1
kcat/KM Cath-V [2]: 10,100 M^-1s^-1
kcat/KM Cath-S [3]: 580 M⁻¹ s⁻¹
kcat/KM Cath-K [4]: 1,010 M^-1s^-1
kcat/KM Cath-B [5]: 2,520 M^-1s^-1

Ac-H[dV][Phe(F5)]E(OBn)-{ACC} (SMILES CC(=O)N[C@@H](Cc1c[nH]cn1)C(=O)N[C@@H](C(=O)N[C@@H](Cc1c(F)c(F)c(F)c(F)c1F)C(=O)N[C@@H](CCC(=O)OCc1ccccc1)C(=O)Nc1ccc2c(CC(N)=O)cc(=O)oc2c1)C(C)C)
kcat/KM Cath-L [1]: 599,800 M^-1s^-1
kcat/KM Cath-V [2]: 710 M⁻¹ s⁻¹
kcat/KM Cath-S [3]: 1,110 M^-1s^-1
kcat/KM Cath-K [4]: 626 M⁻¹ s⁻¹
kcat/KM Cath-B [5]: 941 M⁻¹ s⁻¹
